Measurements as given in PubChem BioAssay (NCI).
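Where inhibition never reached the appropriate level, the endpoint shown equals the highest concentration tested. Otherwise, values were interpolated linearly from a five-concentration, 48-hour dose response in 96-well plates. The concentration for full growth arrest is given as TGI.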

Key:
Assay in all cases: NCI-60 cell line screen, 48 h
SK-MEL-2 melanoma = tested on: SK-MEL-2 melanoma
MALME-3M melanoma = tested on: MALME-3M melanoma
UO-31 renal = tested on: UO-31 renal
OVCAR-4 ovarian = tested on: OVCAR-4 ovarian
OVCAR-3 ovarian = tested on: OVCAR-3 ovarian
NCI-H460 lung = tested on: NCI-H460 lung
PC-3 prostate = tested on: PC-3 prostate
SF-539 CNS = tested on: SF-539 CNS
HCC-2998 colon = tested on: HCC-2998 colon
A498 renal = tested on: A498 renal
T-47D breast = tested on: T-47D breast
NCI-H23 lung = tested on: NCI-H23 lung
BT-549 breast = tested on: BT-549 breast
HCT-15 colon = tested on: HCT-15 colon
MDA-MB-435 = tested on: MDA-MB-435
CAKI-1 renal = tested on: CAKI-1 renal
COLO 205 colon = tested on: COLO 205 colon
OVCAR-5 ovarian = tested on: OVCAR-5 ovarian
CCRF-CEM leukemia = tested on: CCRF-CEM leukemia
MOLT-4 leukemia = tested on: MOLT-4 leukemia
786-0 renal = tested on: 786-0 renal
HOP-62 NSCLC = tested on: HOP-62 NSCLC
NCI-H226 lung = tested on: NCI-H226 lung
SK-MEL-5 melanoma = tested on: SK-MEL-5 melanoma
MDA-N = tested on: MDA-N
M14 melanoma = tested on: M14 melanoma
UACC-62 melanoma = tested on: UACC-62 melanoma
HOP-92 NSCLC = tested on: HOP-92 NSCLC
IGROV1 ovarian = tested on: IGROV1 ovarian
HCT-116 colon = tested on: HCT-116 colon
RXF 393 renal = tested on: RXF 393 renal
UACC-257 melanoma = tested on: UACC-257 melanoma
SF-268 CNS = tested on: SF-268 CNS
A549 NSCLC = tested on: A549 NSCLC
EKVX NSCLC = tested on: EKVX NSCLC
MDA-MB-231 breast = tested on: MDA-MB-231 breast
LOX IMVI melanoma = tested on: LOX IMVI melanoma
SF-295 CNS = tested on: SF-295 CNS
SN12C renal = tested on: SN12C renal
SK-OV-3 ovarian = tested on: SK-OV-3 ovarian
HL-60(TB) leukemia = tested on: HL-60(TB) leukemia
MCF7 breast = tested on: MCF7 breast
SR leukemia = tested on: SR leukemia
NCI/ADR-RES ovarian = tested on: NCI/ADR-RES ovarian
K-562 leukemia = tested on: K-562 leukemia
RPMI-8226 leukemia = tested on: RPMI-8226 leukemia
U251 CNS = tested on: U251 CNS
SNB-19 CNS = tested on: SNB-19 CNS
ACHN renal = tested on: ACHN renal
SK-MEL-28 melanoma = tested on: SK-MEL-28 melanoma
TK-10 renal = tested on: TK-10 renal
SNB-75 CNS = tested on: SNB-75 CNS
NCI-H522 lung = tested on: NCI-H522 lung
OVCAR-8 ovarian = tested on: OVCAR-8 ovarian
SW-620 colon = tested on: SW-620 colon
KM12 colon = tested on: KM12 colon
HT29 colon = tested on: HT29 colon
DU-145 prostate = tested on: DU-145 prostate

Structure (SMILES): OCCOCCO/N=C1\C(c2c(O)[nH]c3ccccc23)=Nc2ccccc21
- TGI (SK-MEL-2 melanoma): 13.7 µM
- TGI (MALME-3M melanoma): 17.5 µM
- TGI (UO-31 renal): 6.48 µM
- TGI (OVCAR-4 ovarian): 43.1 µM
- TGI (OVCAR-3 ovarian): 10.2 µM
- TGI (NCI-H460 lung): 15.3 µM
- TGI (PC-3 prostate): 18.1 µM
- TGI (SF-539 CNS): 11.5 µM
- TGI (HCC-2998 colon): 11.6 µM
- TGI (A498 renal): 0.839 µM
- TGI (T-47D breast): > 44.6 µM
- TGI (NCI-H23 lung): 29.3 µM
- TGI (BT-549 breast): 18.3 µM
- TGI (HCT-15 colon): > 52.4 µM
- TGI (MDA-MB-435): 27.8 µM
- TGI (CAKI-1 renal): 10.8 µM
- TGI (COLO 205 colon): 3.38 µM
- TGI (OVCAR-5 ovarian): 20.5 µM
- TGI (CCRF-CEM leukemia): > 100 µM
- TGI (MOLT-4 leukemia): > 100 µM
- TGI (786-0 renal): 12.1 µM
- TGI (HOP-62 NSCLC): 27.6 µM
- TGI (NCI-H226 lung): 10.3 µM
- TGI (SK-MEL-5 melanoma): 6 µM
- TGI (MDA-N): 26.7 µM
- TGI (M14 melanoma): > 100 µM
- TGI (UACC-62 melanoma): 6.99 µM
- TGI (HOP-92 NSCLC): 69.6 µM
- TGI (IGROV1 ovarian): 5.35 µM
- TGI (HCT-116 colon): 3.95 µM
- TGI (RXF 393 renal): 6.42 µM
- TGI (UACC-257 melanoma): > 73.1 µM
- TGI (SF-268 CNS): 17.8 µM
- TGI (A549 NSCLC): 17.1 µM
- TGI (EKVX NSCLC): 18.2 µM
- TGI (MDA-MB-231 breast): 29.9 µM
- TGI (LOX IMVI melanoma): 11.6 µM
- TGI (SF-295 CNS): 10.2 µM
- TGI (SN12C renal): 17.9 µM
- TGI (SK-OV-3 ovarian): 3.27 µM
- TGI (HL-60(TB) leukemia): 39.3 µM
- TGI (MCF7 breast): 9.73 µM
- TGI (SR leukemia): > 100 µM
- TGI (NCI/ADR-RES ovarian): > 49.2 µM
- TGI (K-562 leukemia): > 100 µM
- TGI (RPMI-8226 leukemia): > 33.2 µM
- TGI (U251 CNS): 16.8 µM
- TGI (SNB-19 CNS): 33.7 µM
- TGI (ACHN renal): 10.3 µM
- TGI (SK-MEL-28 melanoma): > 85.2 µM
- TGI (TK-10 renal): 20.9 µM
- TGI (SNB-75 CNS): 13.8 µM
- TGI (NCI-H522 lung): 17 µM
- TGI (OVCAR-8 ovarian): 27.9 µM
- TGI (SW-620 colon): > 100 µM
- TGI (KM12 colon): 14.1 µM
- TGI (HT29 colon): 7.11 µM
- TGI (DU-145 prostate): 22.8 µM
